Measurements from patent publication US20230373985A1 (Origenis Gmbh, priority 2020, published 2023).

Columns and labels:
[1] = target: T1, wt human TYK2, catalytic site (Homo sapiens, UniProt P29597); assay: HTRF KinEASE assay, TYK2; assay type: biochemical; details: 1 μM ATP; read-out: IC50, Activity Toward TYK2
T1 construct: wt human TYK2, catalytic site; purchased SignalChem
T1 sequence (P29597 897-1176 limits assumed): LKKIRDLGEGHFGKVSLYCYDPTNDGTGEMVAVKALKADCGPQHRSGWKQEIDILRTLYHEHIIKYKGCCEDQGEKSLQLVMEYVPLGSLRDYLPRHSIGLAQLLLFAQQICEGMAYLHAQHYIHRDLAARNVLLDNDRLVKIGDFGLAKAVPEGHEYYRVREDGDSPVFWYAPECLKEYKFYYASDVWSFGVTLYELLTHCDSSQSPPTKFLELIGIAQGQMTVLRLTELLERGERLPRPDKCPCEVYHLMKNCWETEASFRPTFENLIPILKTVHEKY
How it was run: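 HTRF KinEASE-TK readout with 1 μM biotinylated TK substrate in 1× kinase buffer, ≥30 min at room temperature, then antibody/streptavidin-XL665 detection for 60 min. TYK2 at 2 nM with 1 μM ATP; JAK2 at 1 nM with 100 μM ATP. Analysis uses emission ratios.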

[2] = target: T2, wt human LRRK2, catalytic site (Homo sapiens, UniProt Q5S007); assay: TR-FRET LanthaScreen Eu Kinase Binding Assay, LRRK2 wt; details: one range stated for wt and G2019, read-out: IC50, Activity Toward LRRK2(Wt)
T2 construct: 5 nM wt human LRRK2, catalytic site; purchased ThermoFisher
Experimental: (§1) The basic protocol for TR-FRET LanthaScreen Eu Kinase Binding Assay inhibitor studies were performed as follows. LanthaScreen Kinase Binding Assays (ThermoFisher/USA) to evaluate inhibitors were performed by addition of 5 μL of test compound in corresponding DMSO dilutions/5 μl of kinase/antibody mixture, 5 μL of tracer into 384 well small volume plates. After incubation for 1 hour at room temperature, plates were read. Data analysis of emission ratios was according LanthaScreen Eu Kinase Binding Assay protocol.
(§2) Kinase and assay components were adjusted to final concentrations according to kit protocol. For LRRK2: 5 nM wt human LRRK2, catalytic site, or G2019S human LRRK2, catalytic site (ThermoFisher/USA), 2 nM Eu-Anti-GST Antibody, 10 nM Kinase Tracer 236 in 1× Kinase Buffer A. For NUAK1: 8 nM wt human NUAK1, full length (ThermoFisher/USA), 2 nM Eu-Anti-His Antibody, 5 nM Kinase Tracer 236 in 1× Kinase Buffer A.

[3] = target: T3, G2019S human LRRK2, catalytic site (Homo sapiens, UniProt Q5S007, G2019S); assay: TR-FRET LanthaScreen Eu Kinase Binding Assay, LRRK2 G2019S; details: LRRK2(G2019); one range stated for wt and G2019; read-out: IC50, Activity Toward LRRK2(G2019)
T3 construct: G2019S human LRRK2, catalytic site; purchased ThermoFisher
Experimental: as §1, §2

[4] = target: T4, wt human JAK1, catalytic site (Homo sapiens, UniProt P23458); assay: HTRF KinEASE assay, JAK1; assay type: biochemical; details: 2.5 μM ATP; read-out: IC50, Activity Toward JAK1
T4 construct: wt human JAK1, catalytic site; purchased ThermoFisher
How it was run: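 Two-step HTRF KinEASE assay: compound, kinase/biotinylated TK substrate and ATP were incubated at least 30 min at room temperature. Antibody plus streptavidin-XL665 was then added and plates were read after 60 min. Inhibition was derived from emission ratios according to the kit protocol.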

T3 sequence (Q5S007 970-2527 G2019S limits assumed): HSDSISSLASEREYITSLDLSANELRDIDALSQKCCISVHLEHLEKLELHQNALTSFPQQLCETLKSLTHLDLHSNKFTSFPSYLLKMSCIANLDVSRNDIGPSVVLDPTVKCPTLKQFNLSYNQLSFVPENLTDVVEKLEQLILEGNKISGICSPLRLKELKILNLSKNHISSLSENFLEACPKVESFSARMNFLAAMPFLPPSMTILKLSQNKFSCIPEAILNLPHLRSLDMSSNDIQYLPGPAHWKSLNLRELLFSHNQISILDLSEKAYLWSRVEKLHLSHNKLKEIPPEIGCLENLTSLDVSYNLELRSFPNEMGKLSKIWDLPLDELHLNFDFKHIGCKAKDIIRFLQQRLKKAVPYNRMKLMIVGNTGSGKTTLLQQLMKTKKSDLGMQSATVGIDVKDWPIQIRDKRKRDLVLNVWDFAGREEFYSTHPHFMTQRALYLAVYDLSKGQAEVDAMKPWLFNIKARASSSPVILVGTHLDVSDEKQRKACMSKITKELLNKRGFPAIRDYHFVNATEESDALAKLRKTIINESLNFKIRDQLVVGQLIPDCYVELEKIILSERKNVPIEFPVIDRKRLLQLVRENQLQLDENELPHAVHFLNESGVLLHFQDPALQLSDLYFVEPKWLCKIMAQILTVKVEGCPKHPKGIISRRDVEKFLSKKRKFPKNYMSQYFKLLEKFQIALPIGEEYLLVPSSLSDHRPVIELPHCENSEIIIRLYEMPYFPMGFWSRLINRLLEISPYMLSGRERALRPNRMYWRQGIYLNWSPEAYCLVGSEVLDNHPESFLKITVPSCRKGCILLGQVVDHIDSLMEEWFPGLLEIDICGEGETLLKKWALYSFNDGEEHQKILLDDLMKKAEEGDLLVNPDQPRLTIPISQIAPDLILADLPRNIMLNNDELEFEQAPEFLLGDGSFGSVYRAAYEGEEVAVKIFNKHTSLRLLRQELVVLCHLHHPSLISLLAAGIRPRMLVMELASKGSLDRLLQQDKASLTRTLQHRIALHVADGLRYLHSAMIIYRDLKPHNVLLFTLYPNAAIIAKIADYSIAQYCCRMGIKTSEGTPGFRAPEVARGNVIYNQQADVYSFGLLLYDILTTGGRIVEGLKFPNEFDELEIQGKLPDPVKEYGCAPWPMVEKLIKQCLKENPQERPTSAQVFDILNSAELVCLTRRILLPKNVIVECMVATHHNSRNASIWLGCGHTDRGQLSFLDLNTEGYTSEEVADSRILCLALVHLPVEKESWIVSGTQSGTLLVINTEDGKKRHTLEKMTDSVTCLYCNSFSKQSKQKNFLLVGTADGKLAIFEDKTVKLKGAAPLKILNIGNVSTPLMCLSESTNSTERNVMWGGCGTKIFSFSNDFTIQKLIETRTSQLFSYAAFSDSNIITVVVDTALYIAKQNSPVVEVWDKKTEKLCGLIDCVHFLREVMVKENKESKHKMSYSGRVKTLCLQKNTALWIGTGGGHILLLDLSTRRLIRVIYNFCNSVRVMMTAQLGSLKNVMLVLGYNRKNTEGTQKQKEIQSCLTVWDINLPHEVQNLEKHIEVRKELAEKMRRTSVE
T2 sequence (Q5S007 970-2527 limits assumed): as the sequence (Q5S007 970-2527 G2019S limits assumed) above, with S1050G counted along it
T4 sequence (P23458 875-1153 limits assumed): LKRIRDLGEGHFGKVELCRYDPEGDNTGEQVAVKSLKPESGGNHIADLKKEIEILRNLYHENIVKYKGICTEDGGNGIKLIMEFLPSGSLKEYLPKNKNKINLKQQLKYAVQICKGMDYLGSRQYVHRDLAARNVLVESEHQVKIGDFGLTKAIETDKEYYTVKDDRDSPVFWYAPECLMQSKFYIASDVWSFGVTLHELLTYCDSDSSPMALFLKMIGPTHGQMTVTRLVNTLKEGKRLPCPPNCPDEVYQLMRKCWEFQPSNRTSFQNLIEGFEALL

IC50 [1] [µM]	IC50 [2] [µM]	IC50 [3] [µM]	IC50 [4] [µM]	SMILES
0.1 to 1	0.1 to 1	0.1 to 1	0.1 to 1	CP(C)(=O)c1ccc(Nc2cn(-c3c(F)cccc3F)nc2C(N)=O)cc1 [compound 64, 1-(2,6-difluorophenyl)-4-((4-(dimethylphosphoryl)phenyl)amino)-1H-pyrazole-3-carboxamide]
0.01 to 0.1	0.1 to 1	0.1 to 1	0.1 to 1	NC(=O)c1nn(-c2c(Cl)cccc2Cl)cc1Nc1ccc(-n2ncc3c2CCOC3)cc1 [compound 70, 1-(2,6-dichlorophenyl)-4-((4-(6,7-dihydropyrano[4,3-c]pyrazol-1(4H)-yl)phenyl)amino)-1H-pyrazole-3-carboxamide]
0.1 to 1	0.1 to 1	0.1 to 1	0.1 to 1	NC(=O)c1nn(-c2c(Cl)cccc2Cl)cc1Nc1ccc(-n2cc3c(n2)CCOC3)cc1 [compound 71, 1-(2,6-dichlorophenyl)-4-((4-(6,7-dihydropyrano[4,3-c]pyrazol-2(4H)-yl)phenyl)amino)-1H-pyrazole-3-carboxamide]
0.01 to 0.1	0.1 to 1	0.1 to 1	0.01 to 0.1	Cc1ccnn1-c1ccc(Nc2cn(-c3c(Cl)cccc3Cl)nc2C(N)=O)cc1 [compound 80, 1-(2,6-dichlorophenyl)-4-((4-(5-methyl-1H-pyrazol-1-yl)phenyl)amino)-1H-pyrazole-3-carboxamide]
< 0.01	0.1 to 1	0.1 to 1	0.1 to 1	NC(=O)c1nn(-c2c(Cl)cccc2Cl)cc1Nc1ccc(C(=O)N2CCN(CC(F)F)CC2)cc1 [compound 83, 1-(2,6-dichlorophenyl)-4-((4-(4-(2,2-difluoroethyl)piperazine-1-carbonyl)phenyl)amino)-1H-pyrazole-3-carboxamide]
< 0.01	0.1 to 1	0.1 to 1	0.01 to 0.1	NC(=O)c1nn(-c2c(Cl)cccc2Cl)cc1Nc1ccc(C(=O)N2CCN(C3CC3)CC2)cc1 [compound 84, 4-((4-(4-cyclopropylpiperazine-1-carbonyl)phenyl)amino)-1-(2,6-dichlorophenyl)-1H-pyrazole-3-carboxamide]
< 0.01	0.1 to 1	0.1 to 1	0.01 to 0.1	CN1CCN(S(=O)(=O)c2ccc(Nc3cn(-c4c(Cl)cccc4Cl)nc3C(N)=O)cc2)CC1 [compound 85, 1-(2,6-dichlorophenyl)-4-((4-((4-methylpiperazin-1-yl)sulfonyl)phenyl)amino)-1H-pyrazole-3-carboxamide]
< 0.01	0.1 to 1	0.1 to 1	0.1 to 1	CN1CCC(NS(=O)(=O)c2ccc(Nc3cn(-c4c(Cl)cccc4Cl)nc3C(N)=O)cc2)CC1 [compound 89, 1-(2,6-dichlorophenyl)-4-((4-(N-(1-methylpiperidin-4-yl)sulfamoyl)phenyl)amino)-1H-pyrazole-3-carboxamide]
< 0.01	0.1 to 1	0.1 to 1	< 0.01	Cn1nc(C(F)(F)F)nc1-c1ccc(Nc2cn(-c3c(F)cccc3Cl)nc2C(N)=O)cc1 [compound 231, 1-(2-chloro-6-fluorophenyl)-4-((4-(1-methyl-3-(trifluoromethyl)-1H-1,2,4-triazol-5-yl)phenyl)amino)-1H-pyrazole-3-carboxamide]
0.01 to 0.1	0.1 to 1	0.1 to 1	0.01 to 0.1	Cc1ccnn1-c1ccc(Nc2cn(-c3c(F)cccc3Cl)nc2C(N)=O)cc1 [compound 233, 1-(2-chloro-6-fluorophenyl)-4-((4-(5-methyl-1H-pyrazol-1-yl)phenyl)amino)-1H-pyrazole-3-carboxamide]
0.01 to 0.1	0.1 to 1	0.1 to 1	0.01 to 0.1	NC(=O)c1nn(-c2c(Cl)cccc2Cl)cc1Nc1ccc(C(=O)N2CCC(F)C2)cc1 (stereo not shown) [compound 246, 1-(2,6-dichlorophenyl)-4-((4-(3-fluoropyrrolidine-1-carbonyl)phenyl)amino)-1H-pyrazole-3-carboxamide]
< 0.01	0.1 to 1	0.1 to 1	0.01 to 0.1	NC(=O)c1nn(-c2c(Cl)cccc2Cl)cc1Nc1ccc(C(=O)N2CCC(F)(F)C2)cc1 [compound 247, 1-(2,6-dichlorophenyl)-4-((4-(3,3-difluoropyrrolidine-1-carbonyl)phenyl)amino)-1H-pyrazole-3-carboxamide]
< 0.01	0.1 to 1	0.1 to 1	0.01 to 0.1	CCc1nnnn1-c1ccc(Nc2cn(-c3c(Cl)cccc3Cl)nc2C(N)=O)cc1 [compound 259, 1-(2,6-dichlorophenyl)-4-((4-(5-ethyl-1H-tetrazol-1-yl)phenyl)amino)-1H-pyrazole-3-carboxamide]
0.1 to 1	0.1 to 1	0.1 to 1	0.01 to 0.1	Cc1cnccc1-c1ccc(Nc2cn(-c3c(Cl)cccc3Cl)nc2C(N)=O)cc1 [compound 260, 1-(2,6-dichlorophenyl)-4-((4-(3-methylpyridin-4-yl)phenyl)amino)-1H-pyrazole-3-carboxamide]
0.01 to 0.1	0.1 to 1	0.1 to 1	0.01 to 0.1	Cc1c[n+]([O-])ccc1-c1ccc(Nc2cn(-c3c(Cl)cccc3Cl)nc2C(N)=O)cc1 [compound 267, 4-(4-((3-carbamoyl-1-(2,6-dichlorophenyl)-1H-pyrazol-4-yl)amino)phenyl)-3-methylpridine_1-oxide]
0.01 to 0.1	0.1 to 1	0.1 to 1	0.01 to 0.1	NC(=O)c1nn(-c2c(Cl)cccc2Cl)cc1Nc1ccc(-c2nccn2CC(F)(F)F)cc1 [compound 268, 1-(2,6-dichlorophenyl)-4-((4-(1-(2,2,2-trifluoroethyl)-1H-imidazol-2-yl)phenyl)amino)-1H-pyrazole-3-carboxamide]
0.1 to 1	0.1 to 1	0.1 to 1	0.01 to 0.1	NC(=O)c1nn(-c2c(Cl)cccc2Cl)cc1Nc1ccc(N2CCCS2(=O)=O)cc1 [compound 272, 1-(2,6-dichlorophenyl)-4-((4-(1,1-dioxidoisothiazolidin-2-yl)phenyl)amino)-1H-pyrazole-3-carboxamide]
< 0.01	0.1 to 1	0.1 to 1	0.01 to 0.1	N#CC1CN(C(=O)c2ccc(Nc3cn(-c4c(Cl)cccc4Cl)nc3C(N)=O)cc2)C1 [compound 276, 4-((4-(3-cyanoazetidine-1-carbonyl)phenyl)amino)-1-(2,6-dichlorophenyl)-1H-pyrazole-3-carboxamide]
< 0.01	0.1 to 1	0.1 to 1	0.1 to 1	CCc1nc(C(F)(F)F)nn1-c1ccc(Nc2cn(-c3c(F)cccc3Cl)nc2C(N)=O)cc1 [compound 283, 1-(2-chloro-6-fluorophenyl)-4-((4-(5-ethyl-3-(trifluoromethyl)-1H-1,2,4-triazol-1-yl)phenyl)amino)-1H-pyrazole-3-carboxamide]
< 0.01	0.1 to 1	0.1 to 1	0.1 to 1	COCc1nc(C(F)(F)F)nn1-c1ccc(Nc2cn(-c3c(F)cccc3F)nc2C(N)=O)cc1 [compound 299, 1-(2,6-difluorophenyl)-4-((4-(5-(methoxymethyl)-3-(trifluoromethyl)-1H-1,2,4-triazol-1-yl)phenyl)amino)-1H-pyrazole-3-carboxamide]
< 0.01	0.1 to 1	0.1 to 1	0.01 to 0.1	CCn1nc(C(F)(F)F)nc1-c1ccc(Nc2cn(-c3c(F)cccc3F)nc2C(N)=O)cc1 [compound 302, 1-(2,6-difluorophenyl)-4-((4-(1-ethyl-3-(trifluoromethyl)-1H-1,2,4-triazol-5-yl)phenyl)amino)-1H-pyrazole-3-carboxamide]
0.01 to 0.1	0.1 to 1	0.1 to 1	0.01 to 0.1	CCn1cc(C(F)(F)F)nc1-c1ccc(Nc2cn(-c3c(F)cccc3Cl)nc2C(N)=O)cc1 [compound 303, 1-(2-chloro-6-fluorophenyl)-4-((4-(1-ethyl-4-(trifluoromethyl)-1H-imidazol-2-yl)phenyl)amino)-1H-pyrazole-3-carboxamide]
